Data set [1] concerns patients diagnosed with cystitis. The note with it: 80 mgs and up to 200 mgs as a 40 mL instillation; cited from earlier work.
Data set [2] is described as follows: Solubility of CS in water. The class given is physicochemical. The note with it: room temperature, sterile, distilled water. The source says: In accordance with the present invention, the unit dose of CS administered to the patient is at least 250 mgs. More desirably, the unit dose of CS is at least 300 mgs. Preferably, the unit dose is at least 350 mgs. More preferably, the unit dose is at least 400 mgs. The upper end of the acceptable unit dose is capped, in theory, only by the solubility of the given type of CS in the chosen aqueous vehicle, and by the volume of that vehicle used in therapy. At room temperature and in sterile, distilled water, the solubility of CS approaches 50%. Thus, the upper limit of the CS unit dose can be 500 mgs/mL of vehicle. In accordance with the present invention, the unit dose of CS is desirably formulated in a solution volume that is sufficient to expose the bladder surface to be treated, and is at least tolerable and more desirably comfortable for the patient. The upper limit for such volumes lies below the volume causing hydrodistention, which is about 250 mL in some patients. For adult patients, solution volumes are suitably from about 5 mL or 10 mL up to about 100 mL, e.g. up to about 75 mL, and preferably up to about 50 mL. In a specific embodiment of the invention, a solution volume of about 40 mL is utilized. Accordingly, the upper limit of the unit dose of CS administrable to the patient at this volume can approach 20,000 mgs.

Regarding chondroitin sulfate [CS], the “relief of symptoms including frequency, pain and urgency” value in data set [1] is given as “provided relief from at least one symptom”. Also, the solubility entry in data set [2] is “about 50%”.

These data come from patent US7772210B2, “Cystitis treatment with high dose chondroitin sulfate” (Stellar Pharmaceuticals Inc., priority 2004, dated 2010).
